From patent US20030032879A1, “Microbubble formation using ultrasound” (priority 1997, published 2003)
Each block holds one molecule with its values, some of them ahead of it.

Key:
[1] = Acoustic backscatter (gray scale intensity) after injection into water beaker at 37° C.; conditions: 0.2 mL neat liquid (1111 micromoles) into 1000 mL water at 37° C.
Protocol: The criticality that the low boiling liquid be present as a finely divided dispersion rather than as a neat liquid was determined by measuring the acoustic backscatter of the two states.
Two solutions were prepared to simulate the administration to an organism of either a colloidal dispersion of a low boiling liquid or the liquid neat. These were scanned at 5.0 MHz with a Hewlett Packard Model 77020 ultrasound scanner and the images obtained recorded on Sony ES VHS tape. The analog images from the tape were then converted to a digital form using the software package Global Lab Image Software (Data Translation, Marlboro, Mass.). The gray scale intensity within a 4900 pixel (70×70 pixel-sized) region-of-interest was then measured before and after the injection of the colloidal dispersion of Example 19 and the same quantity of neat dodecafluoropentane into a 1000 mL water beaker equilibrated at 37° C.
The measurements were performed on a gray scale of 2 to 254. […] The injection of 0.1 mL of this emulsion produced a change of intensity to 236 five seconds post-injection and 182 fifty-two seconds post-injection.
The same experiment was performed with a 0.2 mL injection of neat dodecafluoropentane. This corresponds to 1111 micromoles of dodecafluoropentane, over 300-times the quantity in the experiment above. […]

[2] = Interfacial tension against dodecafluoropentane, Kruss Drop Volume Tensiometer; type: physicochemical; conditions: Pluronic P-123 / F-127 mixtures, 4° C.
[3] = test system: dogs; conditions: cited from earlier work
[4] = 760 mm Hg and 15° C., Gas Data Book; cited from earlier work
[5] = Calculated change in dispersion size from liquid and gas densities; type: physicochemical; conditions: calculated from cubic root of volume
Protocol: One can also calculate the expected change in dispersion size if one knows the relative densities of the dispersed liquid as a gas and liquid. For example, the Gas Data Book, by W Braker and A Mossman, Matheson, contains such data. Examining octafluorocyclobutane, one finds that 1 L of the liquid yields 188 L of gas at a pressure of 760 mm Hg and 15° C. Since the volume of a sphere is related to the diameter of a sphere by the cubic root of the volume, the phase transition for an octafluorobutane emulsion particle will cause a 5.7-fold increase in diameter.

HLB from graphed interfacial tension data [2]: about 14
SMILES: FC(F)(F)C(F)(F)C(F)(F)C(F)(F)C(F)(F)F [dodecafluoropentane]
image intensity (gray scale of 2 to 254) ([1]; fifty-two seconds post-injection): 5.0
image intensity (gray scale of 2 to 254) ([1]; five seconds post-injection): 7.7

SMILES: CCOCC [ether]
toxicity ([3]; Injections of 20 mL): fatal
contrast effect on Doppler signal ([3]; intraarterial, detected five cm below injection site): greatest contrast effect

SMILES: FC1(F)C(F)(F)C(F)(F)C1(F)F [octafluorocyclobutane]
gas volume from 1 L of the liquid [4]: 188 L
increase in diameter of emulsion particle on phase transition [5]: 5.7 fold
